In ChEMBL document CHEMBL4052800, “Syntheses of cytotoxic novel arctigenin derivatives bearing halogen and alkyl groups on aromatic rings” (Bioorg Med Chem Lett, 2017) one finds EC50 data, which are given here for 90 compounds.

Bounds are passed on as bounds.

The first test deals with HeLa. Briefly: Cytotoxicity against human HeLa cells assessed as reduction in cell viability after 48 hrs by WST-8 assay.
Details: not given
It counts as functional, cell-based. A general note: Tetrazolium dyes change colour on reduction, which living cells bring about.
A word on the EC50: it is the concentration that produces a half-maximal response. As to `O=C1OC[C@H](Cc2ccccc2)[C@H]1Cc1ccc(C(F)(F)F)cc1`, the EC50 is 29 µM.
`CCCCc1ccc(C[C@H]2COC(=O)[C@@H]2Cc2ccc(Cl)c(Cl)c2)cc1`: the EC50 is 27 µM.
With `COc1cc(C[C@H]2C(=O)OC[C@@H]2Cc2ccc(OC)c(OC)c2)ccc1O` [ARCTIGENIN], the EC50 was above 100 µM.
The same measure, in the same setting: then `COc1cc(C[C@@H]2COC(=O)[C@H]2Cc2ccc(O)c(OC)c2)ccc1O`, with above 100 µM; and `O=C1OC[C@H](Cc2ccccc2)[C@H]1Cc1ccc(Cl)c(Cl)c1`, with 26 µM.
On the same count and under the same terms, then `CCCCOc1ccc(C[C@H]2C(=O)OC[C@@H]2Cc2ccccc2)cc1`, with 27 µM; and `CCOc1ccccc1C[C@H]1COC(=O)[C@@H]1Cc1ccc(Cl)c(Cl)c1`, with 31 µM; and `COc1cc(C[C@H]2COC(=O)[C@@H]2Cc2ccc(O)c(OC)c2)ccc1O` [MATAIRESINOL], with above 100 µM.
As for `COc1cc(C[C@@H](C)[C@H](C)Cc2ccc(O)c(OC)c2)ccc1O` [(-)-DIHYDROGUAIARETICACID], the EC50 turned out to be 22 µM.
Consider `O=C1OC[C@H](Cc2ccc(F)cc2)[C@H]1Cc1ccc(Cl)c(Cl)c1`, for which the EC50 is 19 µM.
As to `COc1ccccc1C[C@H]1COC(=O)[C@@H]1Cc1ccc(Cl)c(Cl)c1`, the EC50 was determined as 24 µM.
Take `O=C1OC[C@H](Cc2ccccc2)[C@H]1Cc1ccc(Cl)cc1Cl`: the EC50 is 23 µM.

Another test deals with HL-60. Briefly: Cytotoxicity against human HL60 cells assessed as reduction in cell viability after 48 hrs by WST-8 assay. As to conditions: HL-60, 48 h. It counts as functional, cell-based.
`CCCCOc1cc(C[C@H]2C(=O)OC[C@@H]2Cc2ccccc2)ccc1O`: the EC50 turned out to be 35 µM.
Still for that read-out and setting: then `COc1cc(C[C@H]2COC[C@@H]2Cc2ccc(Cl)c(Cl)c2)ccc1O`, with 21 µM; and `O=C1OC[C@H](Cc2ccccc2)[C@H]1Cc1ccc(F)c(F)c1`, with 50 µM.
As for `COc1ccc(C[C@H]2COC[C@@H]2Cc2ccc(Cl)c(Cl)c2)cc1`, the EC50 came out at 39 µM.
Take `Cc1ccc(C[C@H]2COC(=O)[C@@H]2Cc2ccc(Cl)c(Cl)c2)cc1C`: the EC50 came out at 16 µM.
Consider `Cc1ccc(C[C@H]2COC[C@@H]2Cc2ccc(Cl)c(Cl)c2)cc1`, for which the EC50 stood at 21 µM.
Consider `Cc1ccc(C[C@H]2C(=O)OC[C@@H]2Cc2ccccc2)cc1C`, for which the EC50 came to 35 µM.
Same read-out and setting: then `CCCCOc1ccccc1C[C@H]1COC[C@@H]1Cc1ccc(Cl)c(Cl)c1`, with 20 µM; and `O=C1OC[C@H](Cc2ccccc2)[C@H]1Cc1cccc(F)c1`, with 75 µM; and `CCCCOc1ccc(/C=C2\C(=O)OC[C@@H]2Cc2ccccc2)cc1`, with 58 µM.
As to `Oc1cccc(C[C@H]2COC[C@@H]2Cc2ccc(Cl)c(Cl)c2)c1`, the EC50 was found to be 31 µM.
Turning to `COc1cc(C[C@H]2C(=O)OC[C@@H]2Cc2ccccc2)ccc1O`, the EC50 was 93 µM.
Regarding `O=C1OC[C@H](Cc2ccccc2)[C@H]1Cc1cccc(Cl)c1`, the EC50 is 36 µM.
For the compound `COc1cccc(C[C@H]2C(=O)OC[C@@H]2Cc2ccccc2)c1`, the EC50 worked out at 66 µM.
With `CCc1ccc(C[C@H]2COC[C@@H]2Cc2ccc(Cl)c(Cl)c2)cc1`, the EC50 is 26 µM.
With `O=C1OC[C@H](Cc2ccccc2)[C@H]1Cc1ccc(C(F)(F)F)cc1`, the EC50 came to 22 µM.
For `CCCCOc1ccccc1C[C@H]1C(=O)OC[C@@H]1Cc1ccccc1`, the EC50 was determined as 20 µM.
Same read-out and setting: then `Clc1ccc(C[C@H]2COC[C@@H]2Cc2ccc(Cl)c(Cl)c2)cc1Cl`, with 16 µM; and `O=C1OC[C@H](Cc2cccc(O)c2)[C@H]1Cc1ccc(Cl)c(Cl)c1`, with 48 µM; and `Cc1ccc(C[C@H]2COC[C@@H]2Cc2ccc(Cl)c(Cl)c2)cc1C`, with 36 µM.
Turning to `CCCCc1ccc(C[C@H]2COC(=O)[C@@H]2Cc2ccc(Cl)c(Cl)c2)cc1`, the half-maximal effective concentration (EC50) is 9.4 µM.
Take `C[C@H](Cc1ccccc1)[C@H](C)Cc1ccc(Cl)c(Cl)c1`: the EC50 was 19 µM.
For the compound `COc1cc(C[C@H]2C(=O)OC[C@@H]2Cc2ccc(OC)c(OC)c2)ccc1O` [ARCTIGENIN], the EC50 was 12 µM.
`CCCCOc1ccc(C[C@H]2COC[C@@H]2Cc2ccccc2)cc1`: the EC50 came to 11 µM.
As to `COc1cc(C[C@@H]2COC(=O)[C@H]2Cc2ccc(O)c(OC)c2)ccc1O`, the concentration giving a half-maximal response (EC50) is above 100 µM.
For the compound `COc1ccc(C[C@H]2COC(=O)[C@@H]2Cc2ccc(Cl)c(Cl)c2)cc1O`, the EC50 is 32 µM.
On the same count and under the same terms, then `Cc1ccccc1C[C@H]1COC(=O)[C@@H]1Cc1ccc(Cl)c(Cl)c1`, with 22 µM; and `Fc1ccc(C[C@H]2COC[C@@H]2Cc2ccc(Cl)c(Cl)c2)cc1`, with 43 µM; and `O=C1OC[C@H](Cc2ccccc2)[C@H]1Cc1ccccc1F`, with 72 µM.
Take `Oc1ccccc1C[C@H]1COC[C@@H]1Cc1ccc(Cl)c(Cl)c1`: the EC50 was 34 µM.
Consider `O=C1OC[C@H](Cc2ccccc2)[C@H]1Cc1ccc(Cl)c(Cl)c1`, for which the EC50 is 19 µM.
With `Cc1cccc(C[C@H]2COC[C@@H]2Cc2ccc(Cl)c(Cl)c2)c1`, the 50% effective concentration (EC50) is 28 µM.
In the case of `COc1ccc(C[C@H]2C(=O)OC[C@@H]2Cc2ccccc2)cc1`, the EC50 amounted to 67 µM.
Take `Cc1ccccc1C[C@H]1C(=O)OC[C@@H]1Cc1ccccc1`: the EC50 amounted to 57 µM.
Consider `O=C1OC[C@H](Cc2ccccc2F)[C@H]1Cc1ccc(Cl)c(Cl)c1`, for which the EC50 is 28 µM.
As to `Cc1ccc(C[C@H]2C(=O)OC[C@@H]2Cc2ccccc2)cc1`, the EC50 came to 44 µM.
In the case of `O=C1OC[C@H](Cc2ccccc2)[C@H]1Cc1ccccc1`, the EC50 amounted to 77 µM.
On to `CCCCc1ccc(C[C@H]2COC[C@@H]2Cc2ccc(Cl)c(Cl)c2)cc1`, for which the EC50 worked out at 23 µM.
With `O=C1OC[C@H](Cc2ccccc2)[C@H]1Cc1ccc(O)cc1`, the EC50 is 88 µM.
On the same count and under the same terms, then `COCOc1ccccc1C[C@H]1C(=O)OC[C@@H]1Cc1ccccc1`, with 76 µM; and `O=C1OC[C@H](Cc2ccccc2)[C@H]1Cc1cccc(OC(F)(F)F)c1`, with 34 µM.
Take `Clc1ccc(C[C@H]2COC[C@@H]2Cc2ccc3c(c2)OCCO3)cc1Cl`: the EC50 stood at 38 µM.
Regarding `Fc1ccccc1C[C@H]1COC[C@@H]1Cc1ccc(Cl)c(Cl)c1`, the EC50 worked out at 51 µM.
On to `CCCCCCCOc1cccc(C[C@H]2C(=O)OC[C@@H]2Cc2ccccc2)c1`, for which the EC50 came out at 81 µM.
Turning to `COc1cccc(C[C@H]2COC(=O)[C@@H]2Cc2ccc(Cl)c(Cl)c2)c1`, the EC50 worked out at 34 µM.
For the compound `O=C1OC[C@H](Cc2ccc(F)c(F)c2)[C@H]1Cc1ccc(Cl)c(Cl)c1`, the EC50 was determined as 25 µM.
In the case of `COc1cccc(C[C@H]2COC[C@@H]2Cc2ccc(Cl)c(Cl)c2)c1`, the EC50 was determined as 73 µM.
`COc1ccc(C[C@H]2COC(=O)[C@@H]2Cc2ccc(Cl)c(Cl)c2)cc1OC`: the EC50 turned out to be 24 µM.
Regarding `O=C1OC[C@H](Cc2ccccc2)[C@H]1Cc1ccccc1O`, the EC50 was determined as 83 µM.
Take `CCc1ccc(C[C@H]2COC(=O)[C@@H]2Cc2ccc(Cl)c(Cl)c2)cc1`: the EC50 was 16 µM.
For `CCCCOc1ccc(C[C@H]2C(=O)OC[C@@H]2Cc2ccccc2)cc1`, the half-maximal effective concentration (EC50) came out at 23 µM.
As to `CCCCOc1cccc(C[C@H]2C(=O)OC[C@@H]2Cc2ccccc2)c1`, the EC50 turned out to be 26 µM.
Still for that read-out and setting: under `CCOc1ccccc1C[C@H]1COC(=O)[C@@H]1Cc1ccc(Cl)c(Cl)c1` stands 15 µM; under `Cc1ccccc1C[C@H]1COC[C@@H]1Cc1ccc(Cl)c(Cl)c1`, 21 µM; under `Clc1ccc(C[C@H]2COC[C@@H]2Cc2ccccc2)cc1Cl`, 19 µM.
Take `Cc1cccc(C[C@H]2COC(=O)[C@@H]2Cc2ccc(Cl)c(Cl)c2)c1`: the concentration for a half-maximal effect (EC50) turned out to be 22 µM.
With `O=C1OC[C@H](Cc2ccccc2)[C@H]1Cc1cccc(C(F)(F)F)c1`, the concentration for a half-maximal effect (EC50) came out at 34 µM.
For the compound `COc1cc(C[C@H]2COC(=O)[C@@H]2Cc2ccc(O)c(OC)c2)ccc1O` [MATAIRESINOL], the EC50 was determined as 74 µM.
For the compound `COc1ccccc1C[C@H]1C(=O)OC[C@@H]1Cc1ccccc1`, the EC50 was determined as 79 µM.
As to `O=C1OC[C@H](Cc2ccc3c(c2)OCO3)[C@H]1Cc1ccc(Cl)c(Cl)c1`, the EC50 turned out to be 51 µM.
With `Oc1ccc(C[C@H]2COC[C@@H]2Cc2ccc(Cl)c(Cl)c2)cc1`, the 50% effective concentration (EC50) is 31 µM.
As to `Fc1cccc(C[C@H]2COC[C@@H]2Cc2ccc(Cl)c(Cl)c2)c1`, the EC50 came out at 20 µM.
In the case of `COc1ccccc1C[C@H]1COC[C@@H]1Cc1ccc(Cl)c(Cl)c1`, the EC50 turned out to be 55 µM.
For `Cc1ccc(C[C@H]2COC(=O)[C@@H]2Cc2ccc(Cl)c(Cl)c2)cc1`, the EC50 was determined as 19 µM.
Still for that read-out and setting: under `O=C1OC[C@H](Cc2ccccc2)[C@H]1Cc1ccc(OC(F)(F)F)cc1` stands 27 µM; under `Fc1ccc(C[C@H]2COC[C@@H]2Cc2ccc(Cl)c(Cl)c2)cc1F`, 18 µM.
Still for that read-out and setting: then `COc1cc(C[C@@H](C)[C@H](C)Cc2ccc(O)c(OC)c2)ccc1O` [(-)-DIHYDROGUAIARETICACID], with 26 µM; and `COc1ccc(C[C@H]2COC(=O)[C@@H]2Cc2ccc(Cl)c(Cl)c2)cc1`, with 37 µM; and `O=C1OC[C@H](Cc2ccc(Cl)c(Cl)c2)[C@H]1Cc1ccc(Cl)c(Cl)c1`, with 20 µM.
On the same count and under the same terms, then `O=C1OC[C@H](Cc2ccc(F)cc2)[C@H]1Cc1ccc(Cl)c(Cl)c1`, with 14 µM; and `O=C1OC[C@H](Cc2ccccc2)[C@H]1Cc1ccc(F)cc1`, with 57 µM; and `COCOc1cccc(C[C@H]2C(=O)OC[C@@H]2Cc2ccccc2)c1`, with 80 µM.
Take `COc1ccc(C[C@H]2COC[C@@H]2Cc2ccc(Cl)c(Cl)c2)cc1OC`: the concentration giving a half-maximal response (EC50) turned out to be 16 µM.
Regarding `COc1ccccc1C[C@H]1COC(=O)[C@@H]1Cc1ccc(Cl)c(Cl)c1`, the EC50 stood at 14 µM.
In the case of `CCCCCCCOc1ccccc1C[C@H]1C(=O)OC[C@@H]1Cc1ccccc1`, the EC50 was found to be 75 µM.
For `O=C1OC[C@H](Cc2ccccc2)[C@H]1Cc1ccc(Cl)cc1`, the 50% effective concentration (EC50) came to 36 µM.
As for `O=C1OC[C@H](Cc2ccccc2)[C@H]1Cc1ccc(Cl)cc1Cl`, the EC50 stood at 19 µM.
`O=C1OC[C@H](Cc2ccccc2)[C@H]1Cc1ccccc1C(F)(F)F`: the EC50 is 37 µM.
Turning to `Clc1ccc(C[C@H]2COC[C@@H]2Cc2ccc3c(c2)OCO3)cc1Cl`, the EC50 was found to be 22 µM.
Take `CCOc1ccccc1C[C@H]1COC[C@@H]1Cc1ccc(Cl)c(Cl)c1`: the EC50 turned out to be 29 µM.
In the case of `COc1ccc(C[C@H]2COC[C@@H]2Cc2ccc(Cl)c(Cl)c2)cc1O`, the EC50 worked out at 33 µM.
In the case of `O=C1OC[C@H](Cc2ccc(O)cc2)[C@H]1Cc1ccc(Cl)c(Cl)c1`, the EC50 stood at 37 µM.
Same read-out and setting: then `O=C1OC[C@H](Cc2ccccc2)[C@H]1Cc1ccccc1OC(F)(F)F`, with 39 µM.
Regarding `Cc1cccc(C[C@H]2C(=O)OC[C@@H]2Cc2ccccc2)c1`, the concentration for a half-maximal effect (EC50) came out at 53 µM.
For `O=C1OC[C@H](Cc2ccc3c(c2)OCCO3)[C@H]1Cc1ccc(Cl)c(Cl)c1`, the EC50 came out at 28 µM.
In the case of `O=C1OC[C@H](Cc2ccccc2O)[C@H]1Cc1ccc(Cl)c(Cl)c1`, the EC50 amounted to 33 µM.
Take `O=C1OC[C@H](Cc2ccccc2)[C@H]1Cc1ccc2c(c1)OCO2`: the EC50 is 57 µM.
Still for that read-out and setting: under `COc1cc(C[C@H]2COC(=O)[C@@H]2Cc2ccc(Cl)c(Cl)c2)ccc1O` stands 36 µM.
As for `COCOc1ccc(C[C@H]2C(=O)OC[C@@H]2Cc2ccccc2)cc1`, the EC50 is 71 µM.
With `O=C1OC[C@H](Cc2ccccc2)[C@H]1Cc1ccccc1Cl`, the EC50 was determined as 37 µM.
